Values quoted from earlier work as cited in patent US20030118652A1 (priority 2001, published 2003).

Columns and labels:
[1] = biological target: cytochrome P450 isoform CYP2D6 (Homo sapiens, UniProt P10635); settings: (R)- versus (S)-bisoprolol; stated as 'it is believed'
[2] = (R)- versus (S)-bisoprolol
[3] = following administration of racemic bisoprolol; (S)- versus (R)-bisoprolol

cytochrome P450 isoform CYP2D6, sequence (P10635 whole entry, canonical isoform): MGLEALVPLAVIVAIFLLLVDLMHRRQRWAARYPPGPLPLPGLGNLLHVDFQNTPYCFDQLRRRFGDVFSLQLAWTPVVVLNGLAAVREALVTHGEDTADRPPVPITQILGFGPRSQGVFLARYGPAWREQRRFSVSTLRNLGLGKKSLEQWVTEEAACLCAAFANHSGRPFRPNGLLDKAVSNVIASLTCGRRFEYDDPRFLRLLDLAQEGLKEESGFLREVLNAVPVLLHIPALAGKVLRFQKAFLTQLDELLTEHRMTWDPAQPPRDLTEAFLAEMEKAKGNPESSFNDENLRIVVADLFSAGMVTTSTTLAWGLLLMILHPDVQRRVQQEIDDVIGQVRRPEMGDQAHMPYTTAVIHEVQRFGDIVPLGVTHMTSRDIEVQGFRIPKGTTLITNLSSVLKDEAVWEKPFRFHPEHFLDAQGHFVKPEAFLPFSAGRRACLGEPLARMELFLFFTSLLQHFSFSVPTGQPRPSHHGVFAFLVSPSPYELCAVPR

CC(C)NCC(O)COc1ccc(COCCOC(C)C)cc1 (racemic) [racemic bisoprolol, 1-[4-[[2-(1-methylethoxy)ethoxy]-methyl]phenoxy]-3-[(1-methylethyl)amino]-2-propanol]
side effects on the peripheral circulation (Bailliart et al. 1987): adverse side effects on the peripheral circulation | bronchoconstrictor side effects (Dorow et al. 1986): bronchoconstrictor effects, including wheeziness and breathlessness | effects on carbohydrate metabolism (Janka et al. 1986, patients with diabetes): effects on carbohydrate metabolism that are deleterious to patients with diabetes

CC(C)NC[C@@H](O)COc1ccc(COCCOC(C)C)cc1 [(R)-bisoprolol]
rate of oxidative metabolism by CYP2D6 [1]: greater rate | rate of renal clearance [2]: greater

CC(C)NC[C@H](O)COc1ccc(COCCOC(C)C)cc1 [(S)-bisoprolol]
elimination half-life [3]: slightly higher
